Biological target: BRD4S-TagBFP reporter (Homo sapiens, UniProt O60885)
Assay: FACS-based CRISPR/Cas9 BRD4 protein stability screen
Conditions: Mageck_Gene level
Description: The virus containing supernatant was cleared of cellular debris by filtration through a 0.45-µm PES filter and used to transduce KBM7 BRD4-BFP reporter cells harboring a doxycycline inducible Cas9 allele at a multiplicity of infection (MOI) of 0.05 and 1,000-fold library representation. Library-transduced cells were selected with G418 (1 mg ml^−1, Gibco) for 14 days, expanded and Cas9 expression was induced with DOX (0.4 µg ml^−1, PanReac AppliChem).
Cells were washed with and stored in FACS buffer (PBS containing 5% FBS and 1 mM EDTA) at 4 °C overnight. The next day, cells were strained trough a 35 µm nylon mesh and sorted on a BD FACSAria™ Fusion (BD Biosciences) using a 85 µm nozzle. Aggregates, dead (ZombieNIR positive), Cas9-negative (GFP) and sgRNA library-negative (Thy1.1-APC) cells were excluded, and the remaining cells were sorted based on their BRD4-BFP and mCherry levels into BRD4^HIGH (10% of cells), BRD4^MID (30%) and BRD4^LOW (10%) fractions. For each sample, cells corresponding to at least 2,000-fold library representation were sorted per replicate.
Next-generation sequencing (NGS) libraries of sorted cell fractions were prepared as previously described[25]. In brief, genomic DNA was isolated by cell lysis (10 mM Tris-HCl, 150 mM NaCl, 10 mM EDTA, 0.1% SDS), proteinase K treatment (New England Biolabs) and DNAse-free RNAse digest (Thermo Fisher Scientific), followed by two rounds of phenol extraction and 2-propanol precipitation. Isolated genomic DNA was subjected to several freeze–thaw cycles before nested polymerase chain reaction (PCR) amplification of the sgRNA cassette.
Barcoded NGS libraries for each sorted population were generated using a two-step PCR protocol using AmpliTaq Gold (Invitrogen). The resulting PCR products were purified using Mag-Bind® TotalPure NGS beads (Omega Bio-tek) and amplified in a second PCR introducing the standard Illumina adapters. The final Illumina libraries were bead-purified, pooled and sequenced on a HiSeq 3500 platform (Illumina).
Screen analysis was performed as previously described[25]. Briefly, sequencing reads were quantified using the crispr-process-nf Nextflow workflow, available at https://github.com/ZuberLab/crispr-process-nf/tree/566f6d46bbcc2a3f49f51bbc96b9820f408ec4a3. For statistical analysis, we used the crispr-mageck-nf Nextflow workflow, available at https://github.com/ZuberLab/crispr-mageck-nf/tree/c75a90f670698bfa78bfd8be786d6e5d6d4fc455. To calculate gene-level enrichment, the sorted populations (BRD4^HIGH or BRD4^LOW) were compared to the BRD4^MID populations in MAGeCK (0.5.9)[46], using median normalized read counts.

Which results are given for `Cc1sc2c(c1C)C(c1ccc(Cl)cc1)=NC(CC(=O)NCCOCCOCCOCCOc1c(Br)cc(C=C3C(=O)Nc4ccc(Br)cc43)cc1Br)c1nnc(C)n1-2` (centres unmarked) [Compound 10]?
High_lfc (Gene DCAF1): 0.07; High_logP (Gene DCAF1): 0.4; Low_lfc (Gene DCAF1): 0.08; Low_logP (Gene DCAF1): 0.47; High_lfc (Gene DCAF4): 0.04; High_logP (Gene DCAF4): 0.26; Low_lfc (Gene DCAF4): 0.5; Low_logP (Gene DCAF4): 1.14; High_lfc (Gene DCAF5): -0.31; High_logP (Gene DCAF5): 0.03; Low_lfc (Gene DCAF5): -0.2; Low_logP (Gene DCAF5): 0.09; High_lfc (Gene DCAF6): -0.27; High_logP (Gene DCAF6): 0.06; Low_lfc (Gene DCAF6): 0.14; Low_logP (Gene DCAF6): 0.62; High_lfc (Gene DCAF7): -0.06; High_logP (Gene DCAF7): 0.19; Low_lfc (Gene DCAF7): 0.05; Low_logP (Gene DCAF7): 0.29; High_lfc (Gene DCAF8): -0.08; High_logP (Gene DCAF8): 0.19; Low_lfc (Gene DCAF8): 0.22; Low_logP (Gene DCAF8): 0.46; High_lfc (Gene DCAF12): -0.19; High_logP (Gene DCAF12): 0; Low_lfc (Gene DCAF12): -0.38; Low_logP (Gene DCAF12): 0; High_lfc (Gene DCAF13): -0.32; High_logP (Gene DCAF13): 0.14; Low_lfc (Gene DCAF13): -0.17; Low_logP (Gene DCAF13): 0.23; High_lfc (Gene DCAF15): 0.02; High_logP (Gene DCAF15): 0.29; Low_lfc (Gene DCAF15): 0.34; High_lfc (Gene DCAF16): 0.41; High_logP (Gene DCAF16): 1.29; Low_lfc (Gene DCAF16): 0.15; Low_logP (Gene DCAF16): 0.08; High_lfc (Gene DCAF17): -0.4; High_logP (Gene DCAF17): 0.08; Low_lfc (Gene DCAF17): -0.25; Low_logP (Gene DCAF17): 0.08; High_lfc (Gene DCUN1D1): -0.16; High_logP (Gene DCUN1D1): 0.04; Low_lfc (Gene DCUN1D1): -0.14; Low_logP (Gene DCUN1D1): 0.41; High_lfc (Gene DCUN1D2): -0.24; High_logP (Gene DCUN1D2): 0.01; Low_lfc (Gene DCUN1D2): 0.34; Low_logP (Gene DCUN1D2): 0.85; High_lfc (Gene DCUN1D3): 0.11; High_logP (Gene DCUN1D3): 0.22; Low_lfc (Gene DCUN1D3): 0.24; Low_logP (Gene DCUN1D3): 1.2; High_lfc (Gene DCUN1D4): -0.01; High_logP (Gene DCUN1D4): 0.07; Low_lfc (Gene DCUN1D4): 0.03; Low_logP (Gene DCUN1D4): 0.28; High_lfc (Gene DCUN1D5): 0.22; High_logP (Gene DCUN1D5): 0.38; Low_lfc (Gene DCUN1D5): -0.23; Low_logP (Gene DCUN1D5): 0.04; High_lfc (Gene DDA1): 0.21; High_logP (Gene DDA1): 0.55; Low_lfc (Gene DDA1): -0.07; Low_logP (Gene DDA1): 0.09; High_lfc (Gene DDB1): 1.6; Low_lfc (Gene DDB1): -0.07; Low_logP (Gene DDB1): 0.14; High_lfc (Gene DDB2): -0.17; High_logP (Gene DDB2): 0.1; Low_lfc (Gene DDB2): 0.02; Low_logP (Gene DDB2): 0.41; High_lfc (Gene DET1): 0.13; High_logP (Gene DET1): 0.2; Low_lfc (Gene DET1): 0.1; Low_logP (Gene DET1): 0.55; High_lfc (Gene DHX15): 0.88; High_logP (Gene DHX15): 3.08; Low_lfc (Gene DHX15): 0.33; Low_logP (Gene DHX15): 0.15; High_lfc (Gene DTL): -0.32; High_logP (Gene DTL): 0.12; Low_lfc (Gene DTL): 0.6; Low_logP (Gene DTL): 1.9; High_lfc (Gene ECT2L): 0.08; High_logP (Gene ECT2L): 0.35; Low_lfc (Gene ECT2L): 0.18; Low_logP (Gene ECT2L): 0.73; High_lfc (Gene EED): -0.14; High_logP (Gene EED): 0.1; Low_lfc (Gene EED): -0.33; Low_logP (Gene EED): 0.06; High_lfc (Gene EIF4A1): -0.23; High_logP (Gene EIF4A1): 0.17; Low_lfc (Gene EIF4A1): 0.22; Low_logP (Gene EIF4A1): 0.27; High_lfc (Gene EIF4A3): -0.5; High_logP (Gene EIF4A3): 0.12; Low_lfc (Gene EIF4A3): 0.83; Low_logP (Gene EIF4A3): 3.36; High_lfc (Gene ELOA2): 0.27; High_logP (Gene ELOA2): 1.5; Low_lfc (Gene ELOA2): -0.21; Low_logP (Gene ELOA2): 0.02; High_lfc (Gene ELOA3): -0.14; High_logP (Gene ELOA3): 0.04; Low_lfc (Gene ELOA3): -0.68; Low_logP (Gene ELOA3): 0; High_lfc (Gene ELOA3D): -0.17; High_logP (Gene ELOA3D): 0.16; Low_lfc (Gene ELOA3D): -0.44; Low_logP (Gene ELOA3D): 0.05; High_lfc (Gene ELOA): 0.14; High_logP (Gene ELOA): 0.38; Low_lfc (Gene ELOA): 0.01; Low_logP (Gene ELOA): 0.08; High_lfc (Gene ELOB): 0.32; High_logP (Gene ELOB): 1.07; Low_lfc (Gene ELOB): 0.26; Low_logP (Gene ELOB): 0.54; High_lfc (Gene ELOC): 0.2; High_logP (Gene ELOC): 0.44; Low_lfc (Gene ELOC): 0.2; Low_logP (Gene ELOC): 0.9; High_lfc (Gene ENC1): -0.31; High_logP (Gene ENC1): 0; Low_lfc (Gene ENC1): -0.06; Low_logP (Gene ENC1): 0.22; High_lfc (Gene EPHA4): -0.08; High_logP (Gene EPHA4): 0.25; Low_lfc (Gene EPHA4): -0.27; Low_logP (Gene EPHA4): 0.02; High_lfc (Gene ERCC8): -0.71; High_logP (Gene ERCC8): 0.04; Low_lfc (Gene ERCC8): -0.42; Low_logP (Gene ERCC8): 0.02; High_lfc (Gene ESCO1): 0.09; High_logP (Gene ESCO1): 0.53; Low_lfc (Gene ESCO1): -0.29; Low_logP (Gene ESCO1): 0.05; High_lfc (Gene FAM9A): -0.13; High_logP (Gene FAM9A): 0.02; Low_lfc (Gene FAM9A): -0.08; Low_logP (Gene FAM9A): 0.64; High_lfc (Gene FBXL2): -0.04; High_logP (Gene FBXL2): 0.25; Low_lfc (Gene FBXL2): -0.25; Low_logP (Gene FBXL2): 0.03; High_lfc (Gene FBXL3): -0.55; High_logP (Gene FBXL3): 0; Low_lfc (Gene FBXL3): 0; Low_logP (Gene FBXL3): 0.15; High_lfc (Gene FBXL4): -0.13; High_logP (Gene FBXL4): 0.04; Low_lfc (Gene FBXL4): 0.11; Low_logP (Gene FBXL4): 0.32; High_lfc (Gene FBXL5): -0.03; High_logP (Gene FBXL5): 0.1; Low_lfc (Gene FBXL5): -0.22; Low_logP (Gene FBXL5): 0.05; High_lfc (Gene FBXL6): -0.15; High_logP (Gene FBXL6): 0.09; Low_lfc (Gene FBXL6): -0.18; Low_logP (Gene FBXL6): 0.14; High_lfc (Gene FBXL7): -0.1; High_logP (Gene FBXL7): 0.12; Low_lfc (Gene FBXL7): 0.04; Low_logP (Gene FBXL7): 0.13; High_lfc (Gene FBXL8): -0.02; High_logP (Gene FBXL8): 0.08; Low_lfc (Gene FBXL8): -0.1; Low_logP (Gene FBXL8): 0.23; High_lfc (Gene FBXL12): -0.02; High_logP (Gene FBXL12): 0.03; Low_lfc (Gene FBXL12): 0.09; Low_logP (Gene FBXL12): 0.2; High_lfc (Gene FBXL13): 0.02; High_logP (Gene FBXL13): 0.26; Low_lfc (Gene FBXL13): 0.01; Low_logP (Gene FBXL13): 0.21; High_lfc (Gene FBXL14): -0.22; High_logP (Gene FBXL14): 0.01; Low_lfc (Gene FBXL14): -0.05; Low_logP (Gene FBXL14): 0.13; High_lfc (Gene FBXL15): 0.13; High_logP (Gene FBXL15): 0.24; Low_lfc (Gene FBXL15): 0.16; Low_logP (Gene FBXL15): 0.21; High_lfc (Gene FBXL16): 0.23; High_logP (Gene FBXL16): 0.22; Low_lfc (Gene FBXL16): 0.16; Low_logP (Gene FBXL16): 0.37; High_lfc (Gene FBXL17): -0.14; High_logP (Gene FBXL17): 0.03; Low_lfc (Gene FBXL17): -0.04; Low_logP (Gene FBXL17): 0.45; High_lfc (Gene FBXL18): 0.05; High_logP (Gene FBXL18): 0.34

Source: publication PMC10689823, “Discovery of a Drug-like, Natural Product-Inspired DCAF11 Ligand Chemotype” (Nature Communications, 2023)
